From patent US20160069887A1, “BIOMARKERS FOR PROGNOSIS” (ISIS INNOVATION LIMITED, priority 2013, published 2016)
Where a SMILES comes first, the peptide text is derived from it. The star is where a group is joined. Cbz = O=C(OCc1ccccc1)*

Key:
[1] = system: HUT78, MYLA (CTCL), A2058, A375 (melanoma), HCT116 and HCT15 (CRC); experiment: Immunoblot of autophagy markers and HR23B in tumour cell lines treated with HDAC inhibitors; format: cell-based; settings: for autophagy markers (LC3 cleavage, LAMP1, cathepsin D): immunoblot after 18 hr or 24 hr treatment
U2OS cells [2] = experiment: Visualisation of autophagosomes by anti-LC3 immunostaining; format: cell-based
Experimental: Counter-stain with DAPI was superimposed for each image.
Cells seeded onto coverslips were washed in PBS and fixed in 3.7% formaldehyde for 15 min. Cells were permeabilised in PBS containing 0.5% Triton X-100 for 5 min and then blocked in 5% FCS/PBS for 30 min at room temperature before incubation with primary antibody as indicted. Coverslips were washed in PBS containing 0.05% Tween-20 and incubated with corresponding secondary antibodies for 30 min at room temperature. Alexa Fluro 488 (green fluorescence) or Alexa Fluor 594 (red fluorescence) (Molecular Probes). Finally coverslips were washed extensively in PBS containing 0.05% Tween-20 and mounted onto microscope slides using Vectashield containing DAPI (Vector Laboratories).

U2OS cells [3] = experiment: Immunoblot for apoptosis (PARP) and autophagy (LC3 cleavage); format: cell-based; settings: co-treatment SAHA and 3-methyladenine (10 mM) for 18 hr
U2OS cells [4] = experiment: Global ubiquitination (His6-ubiquitin, Ni2+ pull-down, anti-His immunoblot); format: cell-based; settings: for global ubiquitination, SAHA and MG132 combined: SAHA 5 μM 20 hr and MG132 20 μM 4 hr
Experimental: Cell lysates and Ni^2+ pull-down eluates were analyzed by immunoblotting with anti-His as described. The input HR23B is shown underneath, together with actin levels.
Ni^2+ pull-down eluates were analyzed by immunoblotting with anti-His. The input HR23B level is shown underneath, together with actin levels.
Transfected cells in a 10 cm dish were washed twice with ice-cold PBS and harvested into 1 ml of 8M urea, 0.1 M Na2HPO4/NaH2PO4, 0.01M Tris-HCl, and pH8.0. Lysates were sheared by taking through 23 gauge needle to reduce viscosity. Protein concentration was measured with Bradford (Bio-Rad) and normalised. About 100 μl of lysate was mixed with 4×SDS loading buffer for input. Then 900 μl of lysate was incubated with 70 μl of a 50% slurry of nickel (Ni^2+-NTA)-agarose beads (Qiagen), 5 mM imidazole and 10 mM β-mercaptoethanol overnight at 4° C. The beads were collected by 1 min centrifugation at 8,000 rpm and washed with 750 μl of the following buffers with 5 min mixing at room temperature for each washing step: twice with 8M urea, 0.1M Na2HPO4/NaH2PO4, 0.01 M Tris-HCl, pH 8.0, 10 mM β-mercaptoethanol and 0.1% Triton X-100; three times with 8M urea, 0.1M Na2HPO4/NaH2PO4, 0.01M Tris-HCl, pH 6.3, 10 mM β-mercaptoethanol and 0.1% Triton X-100. The bound proteins were then eluted with 100 μl of elution buffer (200 mM imidazole, 5% SDS, 150 mM Tris-HCl pH6.8, 30% glycerol, 720 mM β-mercaptoethanol, 0.005% bromophenol blue) for 30 min incubation followed by 10 min spin at 13,000 rpm. Samples were heated to 95° C. for 5 min, cooled, and a typical volume of 30 μl loaded on each lane for immunoblot analysis.

[5] = system: patients after potentially-curative surgery for stage II/III colorectal cancer; settings: 1167 rofecoxib patients; median follow-up 4.84 years; cited from earlier work
[6] = system: Flag-HDAC6 stable inducible cell line; experiment: Immunoblot of endogenous HR23B and cleaved caspase 3 upon induction of Flag-HDAC6; settings: for HDAC6-dependent down-regulation of HR23B: Dox-induced Flag-HDAC6, 3MA 5 and 10 mM, 17-AAG 0.1 or 1 μM, tubastatin 10 μM, bortezomib 48 hr
[7] = target: T1, Flag-HDAC6 (wild-type, full length, ectopic) (human, UniProt Q9UBN7 1-1215); experiment: anti-Flag co-immunoprecipitation of Flag-HDAC6 from co-transfected U2OS cells, anti-Myc immunoblot
T1 construct: Expressed by transfection or by doxycycline induction in U2OS cells; also called pcDNA-Flag-HDAC6; WT HDAC6; not shown: Flag tag
T1 sequence: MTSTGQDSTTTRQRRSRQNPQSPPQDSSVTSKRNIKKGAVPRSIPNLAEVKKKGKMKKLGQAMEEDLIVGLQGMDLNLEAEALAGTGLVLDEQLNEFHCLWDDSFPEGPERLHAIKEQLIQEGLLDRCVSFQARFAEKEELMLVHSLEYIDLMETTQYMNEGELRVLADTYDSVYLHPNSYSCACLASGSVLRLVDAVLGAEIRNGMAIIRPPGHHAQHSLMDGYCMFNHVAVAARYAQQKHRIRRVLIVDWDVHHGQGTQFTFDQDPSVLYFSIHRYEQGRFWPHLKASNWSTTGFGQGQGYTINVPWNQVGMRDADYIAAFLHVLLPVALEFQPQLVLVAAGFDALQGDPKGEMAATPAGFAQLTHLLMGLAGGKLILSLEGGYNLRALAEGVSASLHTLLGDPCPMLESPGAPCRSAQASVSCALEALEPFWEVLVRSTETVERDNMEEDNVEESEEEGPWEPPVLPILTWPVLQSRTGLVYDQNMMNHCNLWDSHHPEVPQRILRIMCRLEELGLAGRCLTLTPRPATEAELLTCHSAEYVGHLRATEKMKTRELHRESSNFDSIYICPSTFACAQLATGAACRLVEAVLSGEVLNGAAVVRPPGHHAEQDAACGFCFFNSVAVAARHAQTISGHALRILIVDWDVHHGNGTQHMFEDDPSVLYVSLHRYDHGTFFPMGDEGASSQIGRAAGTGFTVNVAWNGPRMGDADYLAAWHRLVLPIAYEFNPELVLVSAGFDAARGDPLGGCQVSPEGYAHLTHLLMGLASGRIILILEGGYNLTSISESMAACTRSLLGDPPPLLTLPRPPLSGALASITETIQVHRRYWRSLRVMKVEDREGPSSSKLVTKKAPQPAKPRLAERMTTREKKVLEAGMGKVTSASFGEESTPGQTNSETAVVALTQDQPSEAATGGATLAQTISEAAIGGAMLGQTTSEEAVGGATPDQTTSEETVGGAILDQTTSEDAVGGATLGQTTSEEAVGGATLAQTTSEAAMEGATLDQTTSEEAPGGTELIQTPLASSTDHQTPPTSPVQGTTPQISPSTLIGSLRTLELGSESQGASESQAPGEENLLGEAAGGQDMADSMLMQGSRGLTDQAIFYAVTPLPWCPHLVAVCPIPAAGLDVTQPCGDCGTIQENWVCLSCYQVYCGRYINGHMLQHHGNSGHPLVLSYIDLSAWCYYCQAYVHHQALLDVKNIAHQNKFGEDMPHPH

Molecule: O=C(CCCCCCC(=O)Nc1ccccc1)NO [SAHA, N-hydroxy-N′-phenyloctanediamide]
- level of HR23B ([1]; at increasing SAHA concentration, coinciding with autophagocytic markers): decreased levels of HR23B
- autophagy markers (LC3 cleavage, LAMP1, cathepsin D) [1]: caused LC3 cleavage as well as the appearance of LAMP1 and cathepsin D
- autophagosomes when ectopic HR23B was expressed (U2OS cells [2]; SAHA 10 μM for 18 hr, + vs − doxycycline): less evident
- visual appearance of autophagosomes (U2OS cells [2]; SAHA 10 and 20 μM): visual appearance of autophagosomes in cells
- level of apoptosis (U2OS cells [3]): an enhanced level of apoptosis was apparent
- global ubiquitination, SAHA and MG132 combined (U2OS cells [4]): even greater level of ubiquitination

Molecule: CS(=O)(=O)c1ccc(C2=C(c3ccccc3)C(=O)OC2)cc1 [rofecoxib]
- deaths [5]: 241
- recurrences [5]: 297

Molecule: CCCC(CCC)C(=O)O [valproic acid, 2-Propylpentanoic acid]
- autophagy markers (LC3 cleavage, LAMP1, cathepsin D) [1]: resulted in similar effects

Molecule: tubastatin
- HDAC6-dependent down-regulation of HR23B [6]: did not impact on the HDAC6-dependent down-regulation of HR23B
- increase in HR23B upon 17-AAG treatment ([6]; tubastatin 10 μM together with 17-AAG): did prevent the increase in HR23B upon 17-AAG treatment

Molecule: CC(C)C[C@@H](C=O)NC(=O)[C@H](CC(C)C)NC(=O)[C@H](CC(C)C)NC(=O)OCc1ccccc1 [MG132] (Cbz-Leu-Leu-Leu-aldehyde)
- global ubiquitination, SAHA and MG132 combined (U2OS cells [4]): even greater level of ubiquitination
- global ubiquitination, single agent (U2OS cells [4]; SAHA 5 μM 20 hr or MG132 20 μM 4 hr, vs untreated): increase in ubiquitination

Molecule: Cn1cnc(N)c2ncnc1-2 [3-MA, 3-methyladenine]
- level of apoptosis (U2OS cells [3]): an enhanced level of apoptosis was apparent
- HDAC6-dependent down-regulation of HR23B [6]: failed to affect down-regulation of HR23B by HDAC6

Molecule: C=CCNC1=C2C[C@@H](C)C[C@H](OC)[C@H](O)[C@@H](C)/C=C(\C)[C@H](OC(N)=O)[C@@H](OC)/C=C\C=C(/C)C(=O)NC(=CC1=O)C2=O [17-AAG]
- HDAC6-dependent down-regulation of HR23B [6]: HDAC6 failed to down-regulate HR23B

B1: HR23B ΔUbL, myc/his tagged (other)
chain: AVSTPAPATTQQSAPASTTAVTSSTTTTVAQAPTPVPALAPTSTPASITPASATASSEPAPASAAKQEKPAEKPAETPVATSPTATDSTSGDSSRSNLFEDATSALVTGQSYENMVTEIMSMGYEREQVIAALRASFNNPDRAVEYLLMGIPGDRESQAVVDPPQAASTGAPQSSAVAAAAATTTATTTTTSSGGHPLEFLRNQPQFQQMRQIIQQNPSLLPALLQQIGRENPQLLQQISQHQEHFIQMLNEPVQEAGGQGGGGGGGSGGIAEAGSGHMNYIQVTPQEKEAIERLKALGFPEGLVIQAYFACEKNENLAANFLLQQNFDED
notes: not shown: myc/his tag from the pcDNA3.1 (+)/Myc-His vector
- binding result [7]: no binding
